# Biological target: T1, N-acylethanolamine-hydrolyzing acid amidase (Homo sapiens, UniProt Q02083)
# T1 sequence (Q02083 whole entry): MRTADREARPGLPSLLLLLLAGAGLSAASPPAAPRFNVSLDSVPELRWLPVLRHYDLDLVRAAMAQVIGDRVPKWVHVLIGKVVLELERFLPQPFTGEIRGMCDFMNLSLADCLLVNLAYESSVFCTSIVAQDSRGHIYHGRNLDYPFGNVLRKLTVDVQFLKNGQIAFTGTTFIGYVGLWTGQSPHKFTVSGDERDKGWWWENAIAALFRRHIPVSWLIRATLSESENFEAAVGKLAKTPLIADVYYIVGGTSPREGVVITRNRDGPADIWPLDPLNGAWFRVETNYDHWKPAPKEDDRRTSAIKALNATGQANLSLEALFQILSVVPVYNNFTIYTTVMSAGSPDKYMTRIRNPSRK
# Assay: Fluorogenic Assay: The assay was run in Optiplate 96-wells black plates, in a total reaction volume of 200 μL. NAAA protein preparation (4.0 μg) was pre-incubated for 10 min with various concentrations of test compounds or vehicle control (5% DMSO) in 100 mM citrate/phosphate buffer (pH 4.5) containing 3.0 mM DTT, 0.1% Triton X-100, 0.05% BSA, 150 mM NaCl. N-(4-methyl-2-oxo-chromen-7-yl)-hexadecanamide was used as a substrate (5.0 μM) and the reaction carried over for 30 min at 37° C. The samples were then read in a Perkin Elmer Envision plate reader using an excitation wavelength of 360 nm and emission 460 nm.
row,SMILES,IC50
1,CC[C@@H]1OC(=O)[C@@H]1NC(=O)OCc1ccc(-c2ccccc2)cc1 (relative stereo),15 nM
2,CC[C@H]1OC(=O)[C@@H]1NC(=O)OCc1ccc(-c2ccccc2)cc1 (relative stereo),6 nM
3,CC(C)(C)[C@@H]1OC(=O)[C@@H]1NC(=O)OCc1ccc(-c2ccccc2)cc1 (relative stereo),897 nM
4,CC(C)[C@@H]1OC(=O)[C@@H]1NC(=O)OCc1ccc(-c2ccccc2)cc1 (relative stereo),37 nM
5,CC(C)[C@H]1OC(=O)[C@@H]1NC(=O)OCc1ccc(-c2ccccc2)cc1 (relative stereo),23 nM
6,CC(C)(C)[C@H]1OC(=O)[C@@H]1NC(=O)OCc1ccc(-c2ccccc2)cc1 (relative stereo),465 nM

# Biological target: T1, N-acylethanolamine-hydrolyzing acid amidase
# Assay: UPLC/MS Assay: NAAA protein preparation (10 ug) was pre-incubated with various concentrations of test compound or vehicle control in 100 mM NaH2PO4, 100 mM Tri Sodium Citrate Dehydrate, 0.1% Triton-X 100, 3 mM DTT, pH 4.5 for 30 min at 37° C. Duplicate samples were then incubated with 50 uM C17:1 10-cis-heptadecenoylethanolamide (Avanti Polar Lipids, Alabaster, Ala. USA) at 37° C. for 30 minutes. The reaction was terminated by the addition of 0.2 mL of cold methanol containing 1 nmol of heptadecanoic acid (NuChek Prep, Elysian, Minn. USA) as internal standard. Samples were then analyzed by UPLC/MS. Heptadecenoic and heptadecanoic acids were eluted on an Acquity UPLC BEH C18 column (50 mm length, 2.1 mm i.d., 1.7 um pore size, Waters) isocratically at 0.5 mL/min for 1.5 min with a solvent mixture of 95% methanol and 5% water, both containing 0.25% Acetic Acid and 5 mM Ammonium Acetate. The column temperature was 40° C. Electrospray ionization was in the negative mode, capillary voltage was 0.5 kV, […], desolvation temperature was 500° C. N2 was used as drying gas at a flow rate of 1000 L/hour and a temperature of 500° C. The [M-H]- ion was monitored in the selected-ion monitoring mode (m/z values: heptadecenoic acid 267.37, heptadecanoic acid 269.37). Calibration curves were generated using commercial heptadecenoic acid (NuCheck Prep). […]
row,SMILES,IC50
1,CC(OC(=O)N[C@H]1C(=O)O[C@H]1C)c1ccc(-c2ccccc2)cc1 (mixture of isomers),10 nM

# Biological target: T2, N-acylethanolamine-hydrolyzing acid amidase (Rattus norvegicus, UniProt Q5KTC7)
# T2 sequence (Q5KTC7 whole entry): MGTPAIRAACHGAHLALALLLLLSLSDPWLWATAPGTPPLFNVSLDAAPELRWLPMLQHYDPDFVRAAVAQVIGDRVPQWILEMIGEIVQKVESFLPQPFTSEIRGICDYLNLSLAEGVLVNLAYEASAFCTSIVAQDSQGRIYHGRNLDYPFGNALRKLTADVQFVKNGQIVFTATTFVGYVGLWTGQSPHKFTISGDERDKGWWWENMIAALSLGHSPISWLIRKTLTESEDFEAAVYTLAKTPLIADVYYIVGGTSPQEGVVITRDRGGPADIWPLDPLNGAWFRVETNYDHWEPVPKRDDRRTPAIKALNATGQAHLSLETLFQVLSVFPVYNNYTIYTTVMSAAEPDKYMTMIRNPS
# Assay: Enzymatic Assay: Lysosomal NAAA protein preparation were obtained by homogenizing male Sprague-Dawley rat lungs (Charles River) in 20 mM Tris-HCl buffer pH 7.4 containing 0.32M sucrose. Samples were centrifuged at 800×g for 15 minutes at 4° C. Supernatants were then centrifuged at 12,000 g for 30 minutes at 4° C. Pellets were then resuspended in PBS pH 7.4 and subjected to a freeze/thaw cycle at −80° C. The suspension was finally centrifuged at 105,000×g for 1 hour at 4° C. The supernatant was then used in the enzymatic assay.
row,SMILES,IC50
1,C[C@@H]1OC(=O)[C@@H]1NC(=O)OCc1ccc(-c2ccc(C(F)(F)F)cc2)cc1,24 nM
2,CC(OC(=O)N[C@H]1C(=O)O[C@H]1C)c1ccc(-c2ccccc2)cc1 (mixture of isomers),50 nM

# — ChEMBL document CHEMBL3886751, “Disubstituted beta-lactones as inhibitors of N-acylethanolamine acid amidase (NAAA)” (2016)
